Experimental data taken from patent US20260076885A1, “Complexation of Oxybenzone with C-methylresorcin[4]arene” (University of Cincinnati, priority 2021, published 2026).

Tests used:
in vitro = in vitro ADME, human
Experimental: The skin permeation of OXB was evaluated using 6% OXB formulations with and without RsC1 in a Franz diffusion cell (FIG. 9 and Table 1).
The amounts of OXB remaining on the skin surface, inside the skin, and on the surface of the donor chamber cap were also determined at the end of the skin permeation experiments. The average total recovery of OXB from the permeation study was approximately 75%.
In addition, the amount of RsC1 that permeated through the skin to the receptor chamber was determined using an HPLC assay.
Rinse 1: rinsing once using receptor chamber solution (PBS with 0.02% sodium azide and 3% cyclodextrin); Rinse 2: rinsing four times using a methanol/water (85:15) solution. The values for the rinses, cut-up skin, and donor chamber cap were adjusted to correct for the extraction method and RsC1 interference during the OXB assay.
Skin permeation studies of OXB were performed using split-thickness human skin in a Franz diffusion cell with a 0.7 cm2 diffusion area. The skin samples were labeled with the code of the skin donor (n=3, CC, RT, or SL) and the same group of skin donors was used in each experiment. To prepare the skin samples, the cadaver skin was cut into 1.5 cm×1.5 cm pieces, thawed in Petri dishes with PBS at room temperature for 2 h, and then patted dry with Kimwipes before being mounted onto the diffusion cell with the stratum corneum side facing up. PBS containing 0.02% sodium azide as a preservative and 3% cyclodextrin as a solubilizing agent for OXB was used as the solution in the receptor chamber. The TEWL of the skin sample was measured to ensure skin integrity before the permeation study. For TEWL measurements, a vapometer was placed on top of the donor chamber of the diffusion cell and the measurement was repeated until a constant TEWL value was obtained (2-3 measurements, 15 min apart). Only skin samples with TEWL values of <10 g/m2/h were used for permeation experiments.
After the TEWL measurement, the skin in the diffusion cell was allowed to equilibrate for 1 h. During this equilibration period, the skin surface was maintained at 32±1° C. The receptor medium was stirred with a magnetic stirrer at 600 rpm to ensure uniform mixing. The permeation study was initiated by applying 2 mg/cm2 of the test formulation on the skin surface in the diffusion cell. The dose of 2 mg/cm2 was selected based on FDA guidelines. The test formulations were 6% OXB and 6% OXB+RsC1 (1:1) in ethanol. At 0, 3, 6, 10, 12, and 24 h after dosing, 0.5 mL samples were withdrawn from the receptor chamber and immediately replaced with the same volume of fresh PBS solution to maintain a constant receptor solution volume. At the end of the experiment, the residual formulation in the donor compartment was recovered by rinsing once with the receptor chamber solution (PBS with 0.02% sodium azide and 3% cyclodextrin) and four times with methanol/water (85:15) solution (each time with 0.5 ml for 30 s). The treated areas were then dried with Kimwipes. The donor chamber cap and gasket were soaked in 5 ml of methanol/water (85:15) solution for 30 min. The skin was then removed from the diffusion cell, cut into small pieces, and extracted with 4×1 ml of methanol/water (85:15) solution. Blank skin samples were used as the control. The samples collected from the receptor chamber, the rinses, and skin extraction were centrifuged (3000×g for 15 min), and OXB content in the supernatant was determined using HPLC. Statistical analysis was performed using the Student's unpaired t-test and p<0.05 was considered significant.
The HPLC assay was conducted using a Shimadzu HPLC system (Shimadzu Scientific Instruments, Inc., Addison, IL) with an LC-20 AT pump, an SPD-20A UV-Vis detector, a SL-20A autoinjector, and a Microsorb-MV100-5 C18 column (150×4.6 mm, Agilent Technologies, Santa Clara, CA). The mobile phase was methanol and water at a ratio of 85:15. The flow rate was 0.8 ml/min. […]

[1] = background, cited from earlier work

| Compound | Total OXB recovered, Average (%) (in vitro; human, 24 h, 6 %) | recovery at 24 h, 6 % (in vitro; human, Average total recovery of OXB from the permeation study) [%] | recovery at 24 h, 6 % (in vitro; human, Recovery of OXB, Donor chamber cap, Average (%)) [%] | recovery at 24 h, 6 % (in vitro; human, Recovery of OXB, Rinse 1, Average (%)) [%] | recovery at 24 h, 6 % (in vitro; human, Recovery of OXB, Rinse 2, Average (%)) [%] | recovery at 24 h, 6 % (in vitro; human, Recovery of OXB, Skin cut-up, Average (%)) [%] | Fraction of OXB that can penetrate human skin ([1]; Franz diffusion cell) [%] | Fraction of OXB entering the bloodstream and eliminated through urine [1] [%] | Amount of RsC1 permeated through the skin to the receptor chamber (in vitro) |
| --- | --- | --- | --- | --- | --- | --- | --- | --- | --- |
| COc1ccc(C(=O)c2ccccc2)c(O)c1 [OXB, Oxybenzone] | 70.3 | ~75 | 0.6 | 24 | 22.9 | 2.7 | 10 | 0.4 | – |
| CC1c2cc(c(O)cc2O)C(C)c2cc(c(O)cc2O)C(C)c2cc(c(O)cc2O)C(C)c2cc1c(O)cc2O (stereo not drawn) [RsC1, C-methylresorcin[4]arene] | – | – | – | – | – | – | – | – | negligible |
